Our source for the concentration and Papp values is ChEMBL document CHEMBL1137488, “Strategies toward improving the brain penetration of macrocyclic tertiary carbinamine BACE-1 inhibitors” (Bioorg Med Chem Lett, 2007).

Tested on in the first data set: not listed separately
The data set can be described thus: Drug level in mouse brain at 30 mg/kg, ip after 2 hrs. Format: ADME, organism-based. More on the design: dose 30 mg/kg, route intraperitoneal. As to conditions: read-out: Drug uptake.
Regarding `CC1CCc2cccc(c2)C[C@@](C)(N)C(=O)OCc2cc(nc(N(C)S(C)(=O)=O)c2)CC1` (stereo partly drawn), the concentration at 2 h is 637 nM.

For a further data set, the system named is P-glycoprotein. The data set is described as follows: Apparent permeability in human KBV1 cells overexpressing P-glycoprotein. Format: ADME, cell-based, KB-V1.
Conditions: not given
Turning to `CN(c1cc2cc(n1)CCC(c1ccccc1)CCc1cccc(c1)C[C@@](C)(N)C(=O)OC2)S(C)(=O)=O` (stereo partly drawn), the Papp was found to be 9 ×10⁻⁶ cm/s.
The same measure, in the same setting: under `CN(c1cc2cc(n1)N(Cc1ccccc1)CCCCc1cccc(c1)C[C@@](C)(N)C(=O)OC2)S(C)(=O)=O` stands 20 ×10⁻⁶ cm/s; under `CN(c1cc2cc(n1)N(CC1CC1)CCCCc1cccc(c1)C[C@@](C)(N)C(=O)OC2)S(C)(=O)=O`, 8 ×10⁻⁶ cm/s.
On the same count and under the same terms, under `CC1CCc2cccc(c2)C[C@@](C)(N)C(=O)OCc2cc(cc(N(C)S(C)(=O)=O)c2)CC1` (stereo partly drawn) stands 16 ×10⁻⁶ cm/s; under `CN(c1cc2cc(n1)CCCCCc1cccc(c1)C[C@@](C)(N)C(=O)OC2)S(C)(=O)=O`, 29 ×10⁻⁶ cm/s; under `CC1CCc2cccc(c2)C[C@@](C)(N)C(=O)OCc2cc(nc(N(C)S(C)(=O)=O)c2)CC1` (stereo partly drawn), 14 ×10⁻⁶ cm/s.
Still for that read-out and setting: then `CN(c1cc2cc(n1)NCCCCc1cccc(c1)C[C@@](C)(N)C(=O)OC2)S(C)(=O)=O`, with 11 ×10⁻⁶ cm/s.

A word on the Papp: it is the rate of passage across a membrane or cell layer, normalised by area and donor concentration.
